The values below are quoted from earlier work in patent US10045978B2 (AB SCIENCE, priority 2010, dated 2018).

Data set [1] deals with patients with WHO-defined systemic mastocytosis (SM). The note with it: cited from earlier work.
The next data set deals with mastocytosis patients. The note with it: in vivo; cited from earlier work.
Data set [2] has as its system mast cells carrying the D816V c-Kit mutation. The note with it: in vitro; cited from earlier work.
Data set [3] deals with indolent mastocytosis patients. The note with it: cited from earlier work.
The test system of a further data set is patients. The note with it: of patients; cited from earlier work.
The mark [4] stands for this setting: entire evaluable study population (N=108).
Where [5] appears, read: patients with indolent SM (N=22).

Like-named read-outs stand apart in the source and are kept apart here.

For the molecule `Nc1nc(Cl)nc2c1ncn2[C@H]1C[C@H](O)[C@@H](CO)O1` [Cladribine], in data set [1] (setting [4]), the major response rate is reported as 37% and the overall response rate was 55%. In addition, in data set [1] (setting [5]), the overall response rate is on record as 56%. Also, in the data set on mastocytosis patients, the “cases with reduced mast cell tumor burden” value was “up to 50%”.
On to `NC(=O)NO` [hydroxyurea], for which, in data set [1] (setting [4]), the major response rate is on record as 0%. The figures for the overall response rate in data set [1] (setting [4]) and in data set [1] (setting [5]) were 19% and 0%, respectively.
On to `Cc1ccc(NC(=O)c2ccc(CN3CCN(C)CC3)cc2)cc1Nc1nccc(-c2cccnc2)n1` [imatinib], for which, in data set [2], the “response of mast cells carrying the D816V c-Kit mutation” value is “resistant”. In addition, the overall response rate is 17% in data set [1] (c-Kit D816V positive SM patients), 18% in data set [1] (setting [4]) and 14% in data set [1] (setting [5]). Besides, the major response rate in data set [1] (setting [4]) is on record as 9%. In addition, in data set [3], the “patients reporting symptomatic improvements” value was 6/11. The “grade 4 neutropaenia” value in the data set with patients is 5%.
With interferon-alpha, in data set [1] (setting [4]), the major response rate is given as 18% and the overall response rate was 53%. The overall response rate in data set [1] (setting [5]) is given as 60%.
